Assay: Stability study of aqueous solutions (0.250 mg/mL) assayed by HPLC at periodic intervals for 60 days
Type: physicochemical
Conditions: for Creatinine in solution (HPLC assay): 0.250 mg/mL; for Fraction converted to creatinine: aqueous media; for Prepared substance remaining in solution (HPLC assay): buffer, 0 days, 0.25 mg/mL
Method: Creatinol-O-Phospate Solution: A batch of pure water or distilled water is put in a container, adjusted to a prescribed of pH 3 or pH 7 with a normal buffer and buffer salts, and heated to a temperature of 20° to 99° C. To 100 parts by weight of the warm water is added 0.1 to 0.3 parts by weight of the Creatinol-O-Phophate (COP) which is dissolved by stirring. The pH is not particularly limited but is desirably not higher than pH 12 taking the physiological influences of the gastrointestinal tracts into consideration.
They were stored at room temperature (25 C, 77 F), at refrigerator temperature (4 C, 39 F), and at elevated temperature (40 C, 104 F) in glass scintillation vials. These samples were assayed by HPLC at periodic intervals for 60 days and evaluated relative to Standard regression curves of known concentrations of the actives and of creatinine, the primary known degradation product of creatine.

[1] = prepared at pH 3.0, 25° C., 39 Days
[2] = prepared at pH 3.0, 25° C., 60 days
[3] = prepared at pH 3.0, 25° C., INITIAL
[4] = prepared at pH 3.0, 40° C., 39 Days
[5] = prepared at pH 3.0, 40° C., 60 days
[6] = prepared at pH 3.0, 40° C., INITIAL
[7] = prepared at pH 7.0, 40° C., 39 Days
[8] = prepared at pH 7.0, 40° C., 60 days
[9] = prepared at pH 7.0, 40° C., INITIAL

SMILES: CN(CC(=O)O)C(=N)N.O [Creatine Monohydrate, reference compound]
- Creatinine in solution (HPLC assay) (pH 3.0, 25° C., 39 Days): 0.154 mg/mL
- Creatinine in solution (HPLC assay) (pH 3.0, 25° C., 3 day): 0.026 mg/mL
- Creatinine in solution (HPLC assay) (pH 3.0, 25° C., 10 days): 0.072 mg/ml mg/mL
- Creatinine in solution (HPLC assay) (pH 3.0, 25° C., 21 days): 0.111 mg/mL
- Creatinine in solution (HPLC assay) (pH 3.0, 25° C., 60 days): 0.167 mg/mL
- Creatinine in solution (HPLC assay) (pH 3.0, 25° C., INITIAL): 0.000 mg/mL
- Creatinine in solution (HPLC assay) (pH 3.0, 40° C., 39 Days): 0.186 mg/mL
- Creatinine in solution (HPLC assay) (pH 3.0, 40° C., 3 day): 0.125 mg/Ml mg/mL
- Creatinine in solution (HPLC assay) (pH 3.0, 40° C., 10 days): 0.177 mg/ml mg/mL
- Creatinine in solution (HPLC assay) (pH 3.0, 40° C., 21 days): 0.186 mg/mL
- Creatinine in solution (HPLC assay) (pH 3.0, 40° C., 60 days): 0.187 mg/mL
- Creatinine in solution (HPLC assay) (pH 3.0, 40° C., INITIAL): 0.000 mg/mL
- Creatinine in solution (HPLC assay) (pH 7.0, 40° C., 39 Days): 0.068 mg/mL
- Creatinine in solution (HPLC assay) (pH 7.0, 40° C., 3 day): 0.008 mg/mL
- Creatinine in solution (HPLC assay) (pH 7.0, 40° C., 60 days): 0.101 mg/mL
- Creatinine in solution (HPLC assay) (pH 7.0, 40° C., INITIAL): 0.000 mg/mL
- Fraction converted to creatinine (39 days, pH 3.0, stored at 40° C.): 74%
- Fraction converted to creatinine (39 days, pH 7.0, stored at 40° C.): 28%
- Fraction converted to creatinine (pH 3.0, stored at 4° C.): 62%
- pH of the solution [1]: 3.4
- pH of the solution [2]: 3.4
- pH of the solution [3]: 3.0
- pH of the solution [4]: 3.4
- pH of the solution [5]: 3.4
- pH of the solution [6]: 3.0
- pH of the solution [7]: 7.4
- pH of the solution [8]: 7.4
- pH of the solution [9]: 7.0

SMILES: CN(CCOP(=O)(O)O)C(=N)N [Creatinol-O-Phosphate, Creatinol-O-phosphate]
- Stability by increase in creatinine levels over time (FIG. 1, in words): stable and resistant to decomposition
- Stability in aqueous solution (in words): stable
- Creatinine in solution (HPLC assay) (pH 3.0, 4° C., 39 Days): 0.00 mg/mL
- Creatinine in solution (HPLC assay) (pH 3.0, 4° C., 3 day): 0.0 mg/mL
- Creatinine in solution (HPLC assay) (pH 3.0, 4° C., 10 days): 0.0 mg/mL
- Creatinine in solution (HPLC assay) (pH 3.0, 4° C., 21 days): 0.0 mg/mL
- Creatinine in solution (HPLC assay) (pH 3.0, 4° C., 60 days): 0.00 mg/mL
- Creatinine in solution (HPLC assay) (pH 3.0, 4° C., INITIAL): 0.0 mg/mL
- Creatinine in solution (HPLC assay) (pH 3.0, 25° C., 39 Days): 0.00 mg/mL
- Creatinine in solution (HPLC assay) (pH 3.0, 25° C., 3 day): 0.0 mg/mL
- Creatinine in solution (HPLC assay) (pH 3.0, 25° C., 10 days): 0.0 mg/mL
- Creatinine in solution (HPLC assay) (pH 3.0, 25° C., 21 days): 0.0 mg/mL
- Creatinine in solution (HPLC assay) (pH 3.0, 25° C., 60 days): 0.00 mg/mL
- Creatinine in solution (HPLC assay) (pH 3.0, 25° C., INITIAL): 0.0 mg/mL
- Creatinine in solution (HPLC assay) (pH 3.0, 40° C., 39 Days): 0.00 mg/mL
- Creatinine in solution (HPLC assay) (pH 3.0, 40° C., 3 day): 0.0 mg/mL
- Creatinine in solution (HPLC assay) (pH 3.0, 40° C., 10 days): 0.0 mg/mL
- Creatinine in solution (HPLC assay) (pH 3.0, 40° C., 21 days): 0.0 mg/mL
- Creatinine in solution (HPLC assay) (pH 3.0, 40° C., 60 days): 0.00 mg/mL
- Creatinine in solution (HPLC assay) (pH 3.0, 40° C., INITIAL): 0.0 mg/mL
- Creatinine in solution (HPLC assay) (pH 7.0, 4° C., 39 Days): 0.00 mg/mL
- Creatinine in solution (HPLC assay) (pH 7.0, 4° C., 3 day): 0.0 mg/mL
- Creatinine in solution (HPLC assay) (pH 7.0, 4° C., 10 days): 0.0 mg/mL
- Creatinine in solution (HPLC assay) (pH 7.0, 4° C., 21 days): 0.0 mg/mL
- Creatinine in solution (HPLC assay) (pH 7.0, 4° C., 60 days): 0.00 mg/mL
- Creatinine in solution (HPLC assay) (pH 7.0, 4° C., INITIAL): 0.0 mg/mL
- Creatinine in solution (HPLC assay) (pH 7.0, 25° C., 39 Days): 0.00 mg/mL
- Creatinine in solution (HPLC assay) (pH 7.0, 25° C., 3 day): 0.0 mg/mL
- Creatinine in solution (HPLC assay) (pH 7.0, 25° C., 10 days): 0.0 mg/mL
- Creatinine in solution (HPLC assay) (pH 7.0, 25° C., 21 days): 0.0 mg/mL
- Creatinine in solution (HPLC assay) (pH 7.0, 25° C., 60 days): 0.00 mg/mL
- Creatinine in solution (HPLC assay) (pH 7.0, 25° C., INITIAL): 0.0 mg/mL
- Creatinine in solution (HPLC assay) (pH 7.0, 40° C., 39 Days): 0.00 mg/mL
- Creatinine in solution (HPLC assay) (pH 7.0, 40° C., 3 day): 0.0 mg/mL
- Creatinine in solution (HPLC assay) (pH 7.0, 40° C., 10 days): 0.0 mg/mL
- Creatinine in solution (HPLC assay) (pH 7.0, 40° C., 21 days): 0.0 mg/mL
- Creatinine in solution (HPLC assay) (pH 7.0, 40° C., 60 days): 0.00 mg/mL
- Creatinine in solution (HPLC assay) (pH 7.0, 40° C., INITIAL): 0.0 mg/mL
- Prepared substance remaining in solution (HPLC assay) (pH 3): 0.247 mg/ml mg/mL
- Prepared substance remaining in solution (HPLC assay) (pH 7): 0.226 mg/ml mg/mL
- pH of the solution (prepared at pH 3.0, 4° C., 39 Days): 3.1
- pH of the solution (prepared at pH 3.0, 4° C., 60 days): 3.1
- pH of the solution (prepared at pH 3.0, 4° C., INITIAL): 3.0
- pH of the solution [1]: 3.1
- pH of the solution [2]: 3.1
- pH of the solution [3]: 3.0
- pH of the solution [4]: 3.0
- pH of the solution [5]: 3.0
- pH of the solution [6]: 3.0
- pH of the solution (prepared at pH 7.0, 4° C., 39 Days): 5.2
- pH of the solution (prepared at pH 7.0, 4° C., 60 days): 5.2
- pH of the solution (prepared at pH 7.0, 4° C., INITIAL): 7.0
- pH of the solution (prepared at pH 7.0, 25° C., 39 Days): 5.3
- pH of the solution (prepared at pH 7.0, 25° C., 60 days): 5.3
- pH of the solution (prepared at pH 7.0, 25° C., INITIAL): 7.0
- pH of the solution [7]: 5.5
- pH of the solution [8]: 5.5
- pH of the solution [9]: 7.0
